Laboratory results from ChEMBL document CHEMBL3044672, “N9- and N7-(Chloromethyl Phenymethyl)Chloropurine Derivatives from , '-Dichloroxylenes: Synthesis and Anticancer Activity” (2005).

What was measured:
Format in all cases: functional
UACC-257 = experiment: Cytotoxicity against Homo sapiens (human) UACC257 cells after 48 hr by sulforhodamine B assay; settings: UACC-257, 48 h
SNB-19 = experiment: Cytotoxicity against Homo sapiens (human) SNB19 cells after 48 hr by sulforhodamine B assay; settings: SNB-19, 48 h
EKVX = experiment: Cytotoxicity against Homo sapiens (human) EKVX cells after 48 hr by sulforhodamine B assay
M14 = experiment: Cytotoxicity against Homo sapiens (human) M14 cells after 48 hr by sulforhodamine B assay; settings: M14, 48 h
A549 = experiment: Cytotoxicity against Homo sapiens (human) A549 cells after 48 hr by sulforhodamine B assay; settings: A549, 48 h
SW-620 = experiment: Cytotoxicity against Homo sapiens (human) SW620 cells after 48 hr by sulforhodamine B assay; settings: SW-620, 48 h
HCC 2998 = experiment: Cytotoxicity against Homo sapiens (human) HCC2998 cells after 48 hr by sulforhodamine B assay; settings: HCC 2998, 48 h
DU-145 = experiment: Cytotoxicity against Homo sapiens (human) DU145 cells after 48 hr by sulforhodamine B assay; settings: DU-145, 48 h
SK-MEL-5 = experiment: Cytotoxicity against Homo sapiens (human) SK-MEL-5 cells after 48 hr by sulforhodamine B assay; settings: SK-MEL-5, 48 h
HT-29 = experiment: Cytotoxicity against Homo sapiens (human) HT-29 cells after 48 hr by sulforhodamine B assay; settings: HT-29, 48 h
HCT-116 = experiment: Cytotoxicity against Homo sapiens (human) HCT116 cells after 48 hr by sulforhodamine B assay; settings: HCT-116, 48 h
OVCAR-5 = experiment: Cytotoxicity against Homo sapiens (human) OVCAR5 cells after 48 hr by sulforhodamine B assay; settings: OVCAR-5, 48 h
SNB-75 = experiment: Cytotoxicity against Homo sapiens (human) SNB75 cells after 48 hr by sulforhodamine B assay; settings: SNB-75, 48 h
A498 = experiment: Cytotoxicity against Homo sapiens (human) A498 cells after 48 hr by sulforhodamine B assay; settings: A498, 48 h
LOX IMVI = experiment: Cytotoxicity against Homo sapiens (human) LOXIMVI cells after 48 hr by sulforhodamine B assay
OVCAR-8 = experiment: Cytotoxicity against Homo sapiens (human) OVCAR8 cells after 48 hr by sulforhodamine B assay; settings: OVCAR-8, 48 h
TK-10 = experiment: Cytotoxicity against Homo sapiens (human) TK10 cells after 48 hr by sulforhodamine B assay; settings: TK-10, 48 h
SK-MEL-2 = experiment: Cytotoxicity against Homo sapiens (human) SK-MEL-2 cells after 48 hr by sulforhodamine B assay; settings: SK-MEL-2, 48 h
SF-539 = experiment: Cytotoxicity against Homo sapiens (human) SF539 cells after 48 hr by sulforhodamine B assay; settings: SF-539, 48 h
OVCAR-3 = experiment: Cytotoxicity against Homo sapiens (human) OVCAR3 cells after 48 hr by sulforhodamine B assay; settings: OVCAR-3, 48 h
K562 = experiment: Cytotoxicity against Homo sapiens (human) K562 cells after 48 hr by sulforhodamine B assay; settings: K562, 48 h
RPMI-8226 = experiment: Cytotoxicity against Homo sapiens (human) RPMI8226 cells after 48 hr by sulforhodamine B assay; settings: RPMI-8226, 48 h
IGROV-1 = experiment: Cytotoxicity against Homo sapiens (human) IGROV1 cells after 48 hr by sulforhodamine B assay; settings: IGROV-1, 48 h
MCF7 = experiment: Cytotoxicity against Homo sapiens (human) MCF7 cells assessed as cell growth at 10^-4 M after 48 hr by Alamar blue assay; settings: MCF7, 48 h, read-out: Activity
CAKI-1 = experiment: Cytotoxicity against Homo sapiens (human) Caki1 cells after 48 hr by sulforhodamine B assay; settings: CAKI-1, 48 h
OVCAR-4 = experiment: Cytotoxicity against Homo sapiens (human) OVCAR4 cells after 48 hr by sulforhodamine B assay; settings: OVCAR-4, 48 h
SF-295 = experiment: Cytotoxicity against Homo sapiens (human) SF295 cells after 48 hr by sulforhodamine B assay; settings: SF-295, 48 h
[1] = read-out: LC50 (the source's name)

SMILES: Nc1nc(Cl)c2ncn(Cc3cccc(CCl)c3)c2n1
- GI50 (UACC-257): 5.75 µM
- LC50 (concentration killing 50% of cells) (UACC-257): 49 µM
- TGI (UACC-257): 19.5 µM
- GI50 (SNB-19): 3.16 µM
- LC50 (SNB-19): 46.8 µM
- TGI (SNB-19): 15.1 µM
- GI50 (EKVX): 21.4 µM
- TGI (EKVX): 36.3 µM
- CC50 (EKVX; [1]): 60.2 µM
- GI50 (M14): 3.63 µM
- LC50 (M14): 41.7 µM
- TGI (M14): 11.7 µM
- GI50 (A549): 12.3 µM
- TGI (A549): 27.5 µM
- CC50 (A549; [1]): 63.1 µM
- GI50 (SW-620): 3.8 µM
- TGI (SW-620): 11.2 µM
- CC50 (SW-620; [1]): 57.5 µM
- GI50 (HCC 2998): 3.02 µM
- TGI (HCC 2998): 4.89 µM
- CC50 (HCC 2998; [1]): 77.6 µM
- GI50 (DU-145): 4.26 µM
- LC50 (DU-145): 40.7 µM
- TGI (DU-145): 16.6 µM
- GI50 (SK-MEL-5): 11 µM
- LC50 (SK-MEL-5): 51.3 µM
- TGI (SK-MEL-5): 23.4 µM
- GI50 (HT-29): 2.51 µM
- TGI (HT-29): 9.77 µM
- CC50 (HT-29; [1]): 64.6 µM
- GI50 (HCT-116): 1.99 µM
- TGI (HCT-116): 3.89 µM
- CC50 (HCT-116; [1]): 75.9 µM
- GI50 (OVCAR-5): 11 µM
- TGI (OVCAR-5): 25.1 µM
- CC50 (OVCAR-5; [1]): 57.5 µM
- GI50 (SNB-75): 5.75 µM
- TGI (SNB-75): 19.5 µM
- CC50 (SNB-75; [1]): 51.3 µM
- GI50 (A498): 25.1 µM
- LC50 (lethal concentration, 50% cell kill) (A498): > 100 µM
- TGI (A498): 51.3 µM
- GI50 (LOX IMVI): 3.38 µM
- LC50 (LOX IMVI): 81.3 µM
- TGI (LOX IMVI): 13.2 µM
- GI50 (OVCAR-8): 2.29 µM
- LC50 (concentration killing 50% of cells) (OVCAR-8): 53.7 µM
- TGI (OVCAR-8): 6.76 µM
- GI50 (TK-10): 2.39 µM
- TGI (TK-10): 7.08 µM
- CC50 (TK-10; [1]): 27.5 µM
- GI50 (SK-MEL-2): 10.7 µM
- LC50 (concentration killing 50% of cells) (SK-MEL-2): > 100 µM
- TGI (SK-MEL-2): 66.1 µM
- GI50 (SF-539): 4.67 µM
- LC50 (concentration killing 50% of cells) (SF-539): 69.2 µM
- TGI (SF-539): 20.4 µM
- GI50 (OVCAR-3): 0.72 µM
- LC50 (OVCAR-3): 5.49 µM
- TGI (OVCAR-3): 2.29 µM
- GI50 (K562): 4.36 µM
- TGI (K562): > 100 µM
- CC50 (K562; [1]): > 100 µM
- GI50 (RPMI-8226): 2.39 µM
- TGI (RPMI-8226): 11.8 µM
- CC50 (RPMI-8226; [1]): > 100 µM
- GI50 (IGROV-1): 3.46 µM
- LC50 (IGROV-1): 55 µM
- TGI (IGROV-1): 12.9 µM
- growth at 100 µM (MCF7): 0%
- GI50 (CAKI-1): 0.24 µM
- TGI (CAKI-1): 1.51 µM
- CC50 (CAKI-1; [1]): 15.8 µM
- GI50 (OVCAR-4): 1.95 µM
- LC50 (concentration killing 50% of cells) (OVCAR-4): 9.54 µM
- TGI (OVCAR-4): 4.26 µM
- GI50 (SF-295): 3.38 µM
- TGI (SF-295): 14.5 µM
- CC50 (SF-295; [1]): 39.8 µM
